According to the NIST ThermoML archive (doi:10.1021/je050039p):
Numbers after ± are expanded uncertainties.

Conditions: Crystal 1; visual observation

SMILES	Normal melting temperature [°C]
c1ccccc1 [benzene]	5.90 ± 0.5
CCCCCCCCCCCCC [tridecane]	-4.14 ± 0.5
